Test system: sweet cherries, 'Schneiders' variety
Experiment: Field trial of cracking of sweet cherries after application of Tryptophane on cherry trees
Type: in vivo, Prunus avium L.
Settings: for Number of Damaged Fruits / Percentage of Damaged Fruits: 20 and 29 Jun. 2002, 300 cherries sampled at harvest, evaluated Jul. 7, 2002 after heavy rainfall
Description: The following Experiments describe the results of field trials, showing the reducing effect on the cracking of cherries by applying Tryptophane on cherry trees. The influence of the application of the anti-cracking formulation of the present invention on cracking of sweet cherries, was tested on the commercially available ‘Schneiders’ variety of sweet cherry in Belgium during the 2002 growing season. The plant density was approximately 1,646 stems per acre (666 stems/hectare or “ha”). Two different amounts of Tryptophane were applied on the cherry tries and compared with an untreated control. • Experiment 1: Control Group (No treatment with the anti-cracking formulation.) • Experiment 2: 0.0223 lb/acre (25 g/ha) Tryptophane, on 20 Jun. 2002, and 0.0223 lb/acre (25 g/ha) Tryptophane, on 29 Jun. 2002. • Experiment 3: 0.0446 lb/acre (50 g/ha) Tryptophane, on 20 Jun. 2002, and 0.0446 lb/acre (50 g/ha) Tryptophane, on 29 Jun. 2002.
On Jun. 20, 2002, the plants of Experiment 1 and Experiment 2, as listed above, were treated in the evening, under sunny conditions, 71.6° F. (22° C.), and little wind. The cherries began to ripen. On Jun. 29, 2002, the plants of Experiment 1 and Experiment 2 were again treated in the evening, at sunny growth conditions, under slightly cloudy skies, 68° F. (20° C.), and moderate wind. The ripening of the cherries was fully underway.
An evaluation of the cherries in the above Experiments were made on Jul. 7, 2002, after heavy rainfall. For the Experiment's Results, as listed in TABLE 1, below, 300 cherries were randomly sampled at harvest, from which the number of intact and damaged cherries was determined.

[1] = 2* 0.0223 lb/acre (25 g/ha) Tryptophane
[2] = 2*0.0446 lb/acre (50 g/ha) Tryptophane

## N[C@@H](Cc1c[nH]c2ccccc12)C(=O)O [Tryptophane]
[1]
  Number of Damaged Fruits: 78
  Percentage of Damaged Fruits: 26%
[2]
  Number of Damaged Fruits: 42
  Percentage of Damaged Fruits: 14%
Double application of 0.0446 lbs per acre (50 g per hectare), versus untreated control
  reduction of the damage to the cherries: approximately 50%

— patent US20060084577A1, “Formulation and application of Indole-Derivatives for avoiding fruit and vegetable cracking” (priority 2004, published 2006)
